Values quoted from earlier work in US7057165B2, “Probe for mass spectrometry” (Sense Proteomic Ltd., priority 2001, dated 2006).

Biological target: T1, lectin from Arachis hypogea (Arachis hypogaea, UniProt P02872)
T1 construct: biotin (biotinylated lectin)
T1 sequence (P02872 24-259 limits assumed): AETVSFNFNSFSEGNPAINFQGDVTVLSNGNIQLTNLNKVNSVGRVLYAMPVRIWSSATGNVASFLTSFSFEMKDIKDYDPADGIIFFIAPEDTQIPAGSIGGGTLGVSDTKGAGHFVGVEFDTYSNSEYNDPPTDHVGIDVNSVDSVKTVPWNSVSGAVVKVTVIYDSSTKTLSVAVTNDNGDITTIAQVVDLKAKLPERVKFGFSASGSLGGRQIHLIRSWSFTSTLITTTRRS

OC[C@H]1O[C@@H](O[C@H]2[C@H](O)[C@@H](O)C(O)O[C@@H]2CO)[C@H](O)[C@@H](O)[C@H]1O (stereo partly shown) [lactose]
binding constant for this lectin: millimolar range
